Assay results from paper PMC9414972, “α-Glucosidase and α-Amylase Inhibitory Potentials of Quinoline–1,3,4-oxadiazole Conjugates Bearing 1,2,3-Triazole with Antioxidant Activity, Kinetic Studies, and Computational Validation” (Pharmaceuticals, 2022).

Assays:
[1] = Nitric oxide (NO) scavenging activity; conditions: nitric oxide radical scavenging, 37 °C, 2 h
Procedure: The screening of the present compound series for NO radical scavenging activity (Table 2) identified excellent NO scavengers.
The antioxidant capacity of the compounds to scavenge nitric oxide radicals was determined using a modified version of the protocol by Kurian et al.. Briefly, 250 μL of sodium nitroprusside (10 mM) prepared in sodium phosphate buffer (pH 7.4) was added to 500 μL of the compound solution (62.5–500 μM) or distilled water (control). The resulting solution was incubated at 37 °C for 2 h. Then, 250 μL of Griess reagent was added to the reaction mixture before the absorbance was measured at 546 nm. The nitric oxide scavenging activity of the compounds was calculated with the formula: Nitric oxide scavenging (%)=1−Absorbance of compound/Absorbance of control×100

[2] = DPPH radical scavenging activity; conditions: DPPH radical scavenging, 30 min, 25 °C
Procedure: The DPPH assay is used conventionally to quantify a compound’s ability to trap free radicals.
The compounds were evaluated for their ability to scavenge stable DPPH radicals, using a modification of the method by Turkoglu et al..

α-glucosidase [3] = molecular target: T1, α-glucosidase (Saccharomyces cerevisiae, UniProt P38158); assay: Mode of α-glucosidase inhibition (enzyme kinetics, Lineweaver–Burk); type: biochemical; conditions: Lineweaver–Burk plots; inhibitor 0, 75, 150, 300 µM; pNPG
T1 construct: purchased Merck
T1 sequence (P38158 whole entry): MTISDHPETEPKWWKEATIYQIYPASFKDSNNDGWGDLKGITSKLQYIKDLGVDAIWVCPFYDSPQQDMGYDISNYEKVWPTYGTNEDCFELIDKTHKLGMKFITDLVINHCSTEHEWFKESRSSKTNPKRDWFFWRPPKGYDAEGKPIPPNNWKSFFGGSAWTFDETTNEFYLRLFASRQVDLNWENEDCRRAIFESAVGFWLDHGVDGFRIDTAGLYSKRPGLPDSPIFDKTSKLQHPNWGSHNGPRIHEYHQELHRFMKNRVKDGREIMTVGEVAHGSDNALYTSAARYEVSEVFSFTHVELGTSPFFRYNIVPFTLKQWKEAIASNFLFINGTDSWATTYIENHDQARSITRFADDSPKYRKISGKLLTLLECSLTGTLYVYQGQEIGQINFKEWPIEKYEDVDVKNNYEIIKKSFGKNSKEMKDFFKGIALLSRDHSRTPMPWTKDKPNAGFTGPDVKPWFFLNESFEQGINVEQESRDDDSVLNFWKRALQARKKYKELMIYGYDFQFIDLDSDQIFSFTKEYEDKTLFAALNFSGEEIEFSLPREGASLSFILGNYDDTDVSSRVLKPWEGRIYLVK
Text: Understanding a drug’s mode of inhibiting its target is crucial to improve the drug’s activity profile and target specificity. Although orthosteric inhibition, in which the ligand binds at the target’s active site, dominates among currently available drugs, allosteric inhibitors (i.e., drugs binding at regions […] the active site) are desirable due to their reduced vulnerability to active site mutation or to displacement through native substrate overload at the active site. Accordingly, the mode of α-glucosidase inhibition was investigated for promising compounds 4b, 4i, 4j, 4k, 4l, 12k, and 12m, using a time-dependent para-nitrophenyl-[…] (pNPG) assay; the results are presented as Lineweaver–Burk plots (Figure 4). […] Conceivably, this can result in decreased systemic glucose concentration thus alleviating postprandial hyperglycemia and its associated complications.
The mode of inhibition of α-glucosidase of the 4b, 4i, 4j, 4k, 4l, 12k, and 12m compounds was determined using the method described by Kazeem et al. 2013, with modifications. Briefly, 50 µL of the 4b, 4i, 4j, 4k, 4l, 12k, and 12m compounds at (0 µM, 75 µM, 150 µM and 300 µM) concentrations were preincubated with 100 µL of α-glucosidase solution for 10 min at 25 °C in one set of tubes. In another set of tubes, α-glucosidase was preincubated with 50 µL of phosphate buffer (pH 6.9). 25 µL of pNPG at increasing concentrations (0.125–4.0 mg/mL) was added to both sets of solution to start the reaction. Immediately, the absorbance of the resulting solution was monitored for 2 min in a spectrophotometer at 405 nm. The amount of 4-nitrophenol released was determined from a 4-nitrophenol standard curve and then converted to reaction velocities.

α-glucosidase [4] = molecular target: T1, α-glucosidase; assay: biochemical; conditions: pNPG substrate, pH 6.8, 37 °C; read-out: IC50 α-Glucosidase
Procedure: The α-glucosidase inhibitory activity was evaluated using a previous method with slight modifications.

[5] = molecular target: T2, porcine pancreatic amylase (Sus scrofa, UniProt P00690); assay: α-Amylase inhibitory activity (starch/DNS); type: biochemical; conditions: porcine pancreatic amylase, starch, pH 6.9, 25 °C; read-out: IC50 α-Amylase
T2 construct: purchased Merck
T2 sequence (P00690 16-511): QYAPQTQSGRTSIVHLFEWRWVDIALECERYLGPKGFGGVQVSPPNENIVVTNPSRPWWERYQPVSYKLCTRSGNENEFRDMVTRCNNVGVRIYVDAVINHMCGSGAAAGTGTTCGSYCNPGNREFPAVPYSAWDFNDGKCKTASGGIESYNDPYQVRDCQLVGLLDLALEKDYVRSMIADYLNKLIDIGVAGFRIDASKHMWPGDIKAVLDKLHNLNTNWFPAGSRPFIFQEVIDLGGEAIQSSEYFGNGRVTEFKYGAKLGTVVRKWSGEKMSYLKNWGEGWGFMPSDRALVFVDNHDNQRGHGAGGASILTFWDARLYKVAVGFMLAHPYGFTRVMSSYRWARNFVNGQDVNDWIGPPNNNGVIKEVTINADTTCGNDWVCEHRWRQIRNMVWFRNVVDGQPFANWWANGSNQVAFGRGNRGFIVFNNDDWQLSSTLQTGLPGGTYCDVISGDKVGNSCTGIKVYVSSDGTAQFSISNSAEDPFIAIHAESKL
Procedure: α-Amylase inhibitory activity was determined according to Ibitoye et al. with slight modifications. […] The reaction in the mixture was terminated with a 1 mL dinitrosalicylate reagent before boiling for 10 min. The cooled mixture was diluted with 5 mL distilled water, and the absorbance was read at 540 nm. The inhibitory activity was calculated using the formula below: % Inhibition=1−Absorbance of compound/Absorbance of control×100

[6] = Ferric reducing antioxidant power (FRAP); conditions: ferric reducing antioxidant power
Procedure: FRAP is a ferric (Fe^3+) to ferrous (Fe^2+) ions reduction assay that measures a compound’s electron-donating capacity, i.e., the antioxidant’s reducing power.
The mixture was incubated at 50 °C for 20 min, followed by acidification with 100 μL trichloroacetic acid (10%). After centrifugation at 3500 rpm for 10 min, 200 μL of the supernatant was transferred into another test tube containing 200 μL of distilled water and 0.8 mL of FeCl3 (0.1%). Finally, the absorbance was read at 700 nm, and the total reductive antioxidant power was calculated thus: Ferric reducing antioxidant power (%)=Absorbance of compound/Absorbance of 500µM gallic acid×100

SMILES	IC50 [1] [µM]	IC50 [2] [µM]	mode of α-glucosidase inhibition (α-glucosidase [3])	IC50 (α-glucosidase [4]) [µM]	IC50 [5] [µM]	IC50 [6] [µM]	melting point [°C]
CCCSc1nnc(COc2cccc3cccnc23)o1 [4b, 2-(Propylthio)-5-[(quinolin-8-yloxy)methyl]-1,3,4-oxadiazole]	> 500	78.2	non-competitive	24.9	> 500	> 500	–
BrCCCCCSc1nnc(COc2cccc3cccnc23)o1 [4i, 2-[(5-Bromopentyl)thio]-5-[(quinolin-8-yloxy)methyl]-1,3,4-oxadiazole]	198	54.9	non-competitive	15.8	> 500	22.9	–
c1ccc(CSc2nnc(COc3cccc4cccnc34)o2)cc1 [4j, 2-(Benzylthio)-5-[(quinolin-8-yloxy)methyl]-1,3,4-oxadiazole]	399	54.9	non-competitive	26.7	> 500	> 500	75.3 to 79.8
Fc1ccc(CSc2nnc(COc3cccc4cccnc34)o2)cc1 [4k, 2-[(4-Fluorobenzyl)thio]-5-[(quinolin-8-yloxy)methyl]-1,3,4-oxadiazole]	> 500	81.1	non-competitive	23.7	> 500	> 500	106.9 to 109.4
Brc1ccc(Cn2cc(CSc3nnc(COc4cccc5cccnc45)o3)nn2)cc1 [12f, 2-{[(1-(4-Bromobenzyl)-1H-1,2,3-triazol-4-yl)methyl]thio}-5-[(quinolin-8-yloxy)methyl]-1,3,4-oxadiazole]	482	91.8	–	56.4	> 500	> 500	78 to 82
O=[N+]([O-])c1ccc(Cn2cc(CSc3nnc(COc4cccc5cccnc45)o3)nn2)cc1 [12g, 2-{[(1-(4-Nitrobenzyl)-1H-1,2,3-triazol-4-yl)methyl]thio}-5-[(quinolin-8-yloxy)methyl]-1,3,4-oxadiazole]	3.01	81.9	–	46.5	> 500	> 500	100 to 106
Clc1cccc(Cn2cc(CSc3nnc(COc4cccc5cccnc45)o3)nn2)c1 [12h, 2-{[(1-(3-Chlorobenzyl)-1H-1,2,3-triazol-4-yl)methyl]thio}-5-[(quinolin-8-yloxy)methyl]-1,3,4-oxadiazole]	> 500	90.7	–	63.6	> 500	> 500	78 to 84
Clc1ccc(Cn2cc(CSc3nnc(COc4cccc5cccnc45)o3)nn2)c(Cl)c1 [12i, 2-{[(1-(2,4-Dichlorobenzyl)-1H-1,2,3-triazol-4-yl)methyl]thio}-5-[(quinolin-8-yloxy)methyl]-1,3,4-oxadiazole]	> 500	95.4	–	42.8	> 500	> 500	124 to 130
Clc1ccc(-n2cc(CSc3nnc(COc4cccc5cccnc45)o3)nn2)cc1 [12l, 2-{[(1-(4-Chlorophenyl)-1H-1,2,3-triazol-4-yl)methyl]thio}-5-[(quinolin-8-yloxy)methyl]-1,3,4-oxadiazole]	> 500	81.7	–	38	> 500	> 500	132 to 136
Brc1ccc(-n2cc(CSc3nnc(COc4cccc5cccnc45)o3)nn2)cc1 [12n, 2-{[(1-(4-Bromophenyl)-1H-1,2,3-triazol-4-yl)methyl]thio}-5-[(quinolin-8-yloxy)methyl]-1,3,4-oxadiazole]	> 500	92.2	–	35.2	> 500	> 500	126 to 132
O=[N+]([O-])c1ccc(-n2cc(CSc3nnc(COc4cccc5cccnc45)o3)nn2)cc1 [12o, 2-{[(1-(4-Nitrophenyl)-1H-1,2,3-triazol-4-yl)methyl]thio}-5-[(quinolin-8-yloxy)methyl]-1,3,4-oxadiazole]	> 500	88.9	–	38.3	> 500	> 500	150 to 156
Cc1ccc(-n2cc(CSc3nnc(COc4cccc5cccnc45)o3)nn2)cc1 [12p, 2-[(Quinolin-8-yloxy)methyl]-5-{[(1-(p-tolyl)-1h-1,2,3-triazol-4-yl)methyl]thio}-1,3,4-oxadiazole]	> 500	96	–	44.1	495	> 500	78 to 80
COc1ccc(-n2cc(CSc3nnc(COc4cccc5cccnc45)o3)nn2)cc1 [12q, 2-{[(1-(4-Methoxyphenyl)-1H-1,2,3-triazol-4-yl)methyl]thio}-5-[(quinolin-8-yloxy)methyl]-1,3,4-oxadiazole]	> 500	98.5	–	62.1	> 500	> 500	122 to 128
Clc1ccc(-n2cc(CSc3nnc(COc4cccc5cccnc45)o3)nn2)c(Cl)c1 [12r, 2-{[(1-(2,4-Dichlorophenyl)-1H-1,2,3-triazol-4-yl)methyl]thio}-5-[(quinolin-8-yloxy)methyl]-1,3,4-oxadiazole]	> 500	101	–	48.5	> 500	> 500	112 to 116
Clc1cccc(Cl)c1-n1cc(CSc2nnc(COc3cccc4cccnc34)o2)nn1 [12s, 2-{[(1-(2,6-Dichlorophenyl)-1H-1,2,3-triazol-4-yl)methyl]thio}-5-[(quinolin-8-yloxy)methyl]-1,3,4-oxadiazole]	> 500	84.5	–	38.8	> 500	> 500	113 to 118
Cc1cccc(C)c1-n1cc(CSc2nnc(COc3cccc4cccnc34)o2)nn1 [12t, 2-{[(1-(2,6-Dimethylphenyl)-1H-1,2,3-triazol-4-yl)methyl]thio}-5-[(quinolin-8-yloxy)methyl]-1,3,4-oxadiazole]	> 500	90	–	44.1	> 500	> 500	110 to 116
